What follows are compounds tested against human Gal-3 (hGal-3) (Homo sapiens (Human), UniProt P17931) (assay: Competitive binding assay: biotinylated hGal-3 binding to microplate-adsorbed asialofetuin (ASF)). Conditions: Activity on hGal-3; mean values of several measurements; mixture of diastereomers measured where not separated.
human Gal-3 (hGal-3), sequence (P17931 whole entry): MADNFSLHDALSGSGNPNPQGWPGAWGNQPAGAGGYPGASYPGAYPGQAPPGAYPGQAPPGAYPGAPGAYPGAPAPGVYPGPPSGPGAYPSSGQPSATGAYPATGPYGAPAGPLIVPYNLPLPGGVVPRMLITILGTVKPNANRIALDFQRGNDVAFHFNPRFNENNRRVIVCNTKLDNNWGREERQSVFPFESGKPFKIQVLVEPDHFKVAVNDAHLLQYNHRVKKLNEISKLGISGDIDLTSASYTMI
Procedure, shortened: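 Spectrophotometric read-out using streptavidin-peroxidase and ABTS quantifies how much biotin-hGal-3 remains bound to microplate asialofetuin after 3 h at 4 °C with compound present. Values are means of repeated IC50 determinations.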
`CO[C@@H]1[C@@H](n2cc(-c3cc(F)c(F)c(F)c3)nn2)[C@@H](O)[C@@H](CO)O[C@H]1C(=O)N(c1cc(Br)cc(C#N)c1)[C@H]1CNC[C@@H]1O` [Example 60, (2R,3R,4S,5R,6R)-N-(3-bromo-5-cyanophenyl)-5-hydroxy-6-(hydroxymethyl)-N-((3S,4S)-4-hydroxypyrrolidin-3-yl)-3-methoxy-4-(4-(3,4,5-trifluorophenyl)-1H-1,2,3-triazol-1-yl)tetrahydro-2H-pyran-2-carboxamide] was tested, and the IC50 was 51 nM.
`CO[C@@H]1[C@@H](n2cc(-c3cc(F)c(F)c(F)c3)nn2)[C@@H](O)[C@@H](CO)O[C@H]1C(=O)N(c1cc(C)cc(Br)c1)[C@H]1CNC[C@@H]1O` [Example 61, (2R,3R,4S,5R,6R)-N-(3-bromo-5-methylphenyl)-5-hydroxy-6-(hydroxymethyl)-N-((3S,4S)-4-hydroxypyrrolidin-3-yl)-3-methoxy-4-(4-(3,4,5-trifluorophenyl)-1H-1,2,3-triazol-1-yl)tetrahydro-2H-pyran-2-carboxamide] gave an IC50 of 26 nM.
Compound `CO[C@@H]1[C@@H](n2cc(-c3ccc(C)c(F)c3F)nn2)[C@@H](O)[C@@H](CO)O[C@H]1C(=O)N(c1cc(Cl)cc(Cl)c1)[C@H]1CNC[C@@H]1O` [Example 63, (2R,3R,4S,5R,6R)-N-(3,5-dichlorophenyl)-4-(4-(2,3-difluoro-4-methylphenyl)-1H-1,2,3-triazol-1-yl)-5-hydroxy-6-(hydroxymethyl)-N-((3S,4S)-4-hydroxypyrrolidin-3-yl)-3-methoxytetrahydro-2H-pyran-2-carboxamide] has an IC50 of 24 nM.
`CO[C@@H]1[C@@H](n2cc(-c3ccc(C)c(F)c3F)nn2)[C@@H](O)[C@@H](CO)O[C@H]1C(=O)N(c1cc(C)cc(Br)c1)[C@H]1CNC[C@@H]1O` [Example 64, (2R,3R,4S,5R,6R)-N-(3-bromo-5-methylphenyl)-4-(4-(2,3-difluoro-4-methylphenyl)-1H-1,2,3-triazol-1-yl)-5-hydroxy-6-(hydroxymethyl)-N-((3S,4S)-4-hydroxypyrrolidin-3-yl)-3-methoxytetrahydro-2H-pyran-2-carboxamide] showed an IC50 of 25 nM.
For `CO[C@@H]1[C@@H](n2cc(-c3ccc(Cl)c(Cl)c3)nn2)[C@@H](O)[C@@H](CO)O[C@H]1C(=O)N(c1cc(Cl)cc(Cl)c1)[C@H]1CNC[C@@H]1O` [Example 65, (2R,3R,4S,5R,6R)-N-(3,5-dichlorophenyl)-4-(4-(3,4-dichlorophenyl)-1H-1,2,3-triazol-1-yl)-5-hydroxy-6-(hydroxymethyl)-N-((3S,4S)-4-hydroxypyrrolidin-3-yl)-3-methoxytetrahydro-2H-pyran-2-carboxamide], the IC50 was 54 nM.
With `CO[C@@H]1[C@@H](n2cc(-c3cc(F)c(F)c(F)c3)nn2)[C@@H](O)[C@@H](CO)O[C@H]1C(=O)N(c1cc(Cl)cc(Cl)c1)[C@@H]1CNC[C@H]1O` [Example 66, (2R,3R,4S,5R,6R)-N-(3,5-dichlorophenyl)-5-hydroxy-6-(hydroxymethyl)-N-((3R,4R)-4-hydroxypyrrolidin-3-yl)-3-methoxy-4-(4-(3,4,5-trifluorophenyl)-1H-1,2,3-triazol-1-yl)tetrahydro-2H-pyran-2-carboxamide] the IC50 was 182 nM.
Compound `CO[C@@H]1[C@@H](n2cc(-c3cc(F)c(F)c(F)c3)nn2)[C@@H](O)[C@@H](CO)O[C@H]1C(=O)N(c1cc(Br)cc(C#N)c1)[C@@H]1CNC[C@H]1O` [Example 67, (2R,3R,4S,5R,6R)-N-(3-bromo-5-cyanophenyl)-5-hydroxy-6-(hydroxymethyl)-N-((3R,4R)-4-hydroxypyrrolidin-3-yl)-3-methoxy-4-(4-(3,4,5-trifluorophenyl)-1H-1,2,3-triazol-1-yl)tetrahydro-2H-pyran-2-carboxamide] has an IC50 of 129 nM.
With `CO[C@@H]1[C@@H](n2cc(-c3cc(F)c(F)c(F)c3)nn2)[C@@H](O)[C@@H](CO)O[C@H]1C(=O)N(c1cc(C)cc(Br)c1)[C@@H]1CNC[C@H]1O` [Example 68, (2R,3R,4S,5R,6R)-N-(3-bromo-5-methylphenyl)-5-hydroxy-6-(hydroxymethyl)-N-((3R,4R)-4-hydroxypyrrolidin-3-yl)-3-methoxy-4-(4-(3,4,5-trifluorophenyl)-1H-1,2,3-triazol-1-yl)tetrahydro-2H-pyran-2-carboxamide] the IC50 was 222 nM.
Compound `CO[C@@H]1[C@@H](n2cc(-c3ccc(C)c(F)c3F)nn2)[C@@H](O)[C@@H](CO)O[C@H]1C(=O)N(c1cc(C)cc(Br)c1)[C@@H]1CNC[C@H]1O` [Example 69, (2R,3R,4S,5R,6R)-N-(3-bromo-5-methylphenyl)-4-(4-(2,3-difluoro-4-methylphenyl)-1H-1,2,3-triazol-1-yl)-5-hydroxy-6-(hydroxymethyl)-N-((3R,4R)-4-hydroxypyrrolidin-3-yl)-3-methoxytetrahydro-2H-pyran-2-carboxamide] has an IC50 of 38 nM.
Compound `CO[C@@H]1[C@@H](n2cc(-c3cc(F)c(F)c(F)c3)nn2)[C@@H](O)[C@@H](CO)O[C@H]1C(=O)N(c1cc(Cl)cc(Cl)c1)[C@H]1CN(C(C)=O)C[C@@H]1O` [Example 71, (2R,3R,4S,5R,6R)-N-((3S,4S)-1-acetyl-4-hydroxypyrrolidin-3-yl)-N-(3,5-dichlorophenyl)-5-hydroxy-6-(hydroxymethyl)-3-methoxy-4-(4-(3,4,5-trifluorophenyl)-1H-1,2,3-triazol-1-yl)tetrahydro-2H-pyran-2-carboxamide] has an IC50 of 36 nM.
Compound `CO[C@@H]1[C@@H](n2cc(-c3cc(F)c(F)c(F)c3)nn2)[C@@H](O)[C@@H](CO)O[C@H]1C(=O)N(c1cc(C)cc(Br)c1)[C@H]1CN(C(C)=O)C[C@@H]1O` [Example 72, (2R,3R,4S,5R,6R)-N-((3S,4S)-1-acetyl-4-hydroxypyrrolidin-3-yl)-N-(3-bromo-5-methylphenyl)-5-hydroxy-6-(hydroxymethyl)-3-methoxy-4-(4-(3,4,5-trifluorophenyl)-1H-1,2,3-triazol-1-yl)tetrahydro-2H-pyran-2-carboxamide] has an IC50 of 26 nM.
Work on `CO[C@@H]1[C@@H](n2cc(-c3ccc(Br)c(F)c3F)nn2)[C@@H](O)[C@@H](CO)O[C@H]1C(=O)N(c1cc(Cl)cc(Cl)c1)[C@H]1CN(C(C)=O)C[C@@H]1O` [Example 73, (2R,3R,4S,5R,6R)-N-((3S,4S)-1-acetyl-4-hydroxypyrrolidin-3-yl)-4-(4-(4-bromo-2,3-difluorophenyl)-1H-1,2,3-triazol-1-yl)-N-(3,5-dichlorophenyl)-5-hydroxy-6-(hydroxymethyl)-3-methoxytetrahydro-2H-pyran-2-carboxamide] yielded an IC50 of 23 nM.
`CO[C@@H]1[C@@H](n2cc(-c3cc(F)c(C)c(F)c3)nn2)[C@@H](O)[C@@H](CO)O[C@H]1C(=O)N(c1cc(Br)cc(Br)c1)[C@H]1CN(C(C)=O)C[C@@H]1O` [Example 74, (2R,3R,4S,5R,6R)-N-((3S,4S)-1-acetyl-4-hydroxypyrrolidin-3-yl)-N-(3,5-dibromophenyl)-4-(4-(3,5-difluoro-4-methylphenyl)-1H-1,2,3-triazol-1-yl)-5-hydroxy-6-(hydroxymethyl)-3-methoxytetrahydro-2H-pyran-2-carboxamide] showed an IC50 of 27 nM.
`CO[C@@H]1[C@@H](n2cc(-c3cc(F)c(C)c(F)c3)nn2)[C@@H](O)[C@@H](CO)O[C@H]1C(=O)N(c1cc(C)cc(Br)c1)[C@H]1CN(C(C)=O)C[C@@H]1O` [Example 75, (2R,3R,4S,5R,6R)-N-((3S,4S)-1-acetyl-4-hydroxypyrrolidin-3-yl)-N-(3-bromo-5-methylphenyl)-4-(4-(3,5-difluoro-4-methylphenyl)-1H-1,2,3-triazol-1-yl)-5-hydroxy-6-(hydroxymethyl)-3-methoxytetrahydro-2H-pyran-2-carboxamide] gave an IC50 of 22 nM.
